# Assay results from patent US4749703A, “Calcium antagonist piperazine derivatives, and compositions therefor” (Dainippon Pharmaceutical Co., Ltd., priority 1984, dated 1988).
# Key:
# [1] = system: spontaneously hypertensive rats (SHR); assay: Antihypertensive activity in spontaneously hypertensive rats (SHR); format: in vivo, male SHR (Okamoto and Aoki strain) rats; details: 30 mg/kg
# Procedure: The animals used were male SHR [Okamoto and Aoki strain; cf. Jap. Circul. […] Proc. Soc. […] The other end of the cannula was exposed through the skin on the back of the neck and fixed. After 1 to 4 days, the aortic cannula was connected to a pressure transducer (produced by Nihon Koden Co., Ltd., Japan; Model MP-4T), and conscious blood pressure was measured by direct method. On the day of the experiment, the blood pressure was measured for one hour prior to dosing. The test compound, suspended in 0.5% aqueous tragacanth solution, was administered orally at a volume of 3.0 ml/kg and the blood pressure was measured continuously for 5 hours.
# The changes of blood pressure are expressed by the mean pressure calculated from the values of systolic and diastolic pressure.
# [2] = system: vasopressin-induced ST depression; assay: Preventive effect on vasopressin-induced ST depression (experimental model of angina pectoris); format: in vivo, Male Donryu strain rats; set-up: key to Preventive effect on ST depression, 7 hours / Preventive effect on ST depression, 1 hour / Preventive effect on ST depression, 5 hours / Preventive effect on ST depression, 3 hours: +: Significantly different from vehicle control (P < 0.05); -: No significant difference; details: for Preventive effect on ST depression, 1 hour: 1 hour following administration; for Preventive effect on ST depression, 7 hours: 7 hours following administration
# Procedure: (1) Preventive effect on vasopressin-induced ST depression (effect in experimental model of angina pectoris)
# The test was carried out according to the method of Hatano et al. [cf. Pharmacometrics, 19, 311-317 (1980)].
# Male Donryu strain rats, weighing 130-180 g, were anesthetized with 60 mg/kg (i.p.) of sodium pentobarbital. Lead II electrocardiogram was recorded. The ST depression produced with 0.2 IU/kg (i.v.) of vasopressin was recorded at intervals of a given period for 5 minutes after the administration of vasopressin. The test compound, suspended in 0.5% aqueous tragacanth solution, was administered orally 1, 3, 5 and 7 hours before the administration of vasopressin. The amplitude of ST depression was measured by means of the computer, and the data were analyzed statistically by two-dimensional analysis between the control group and the treated group to evaluate the effect of the test compound. Each group of 5 rats was used for each dose of the test compound.
# in vivo = details: mouse, mortality for 7 days
# Source text: STD-ddY strain mice were used in groups of 10 animals each.
# [3] = system: methacholine-induced ST elevation; assay: Preventive effect on methacholine-induced ST elevation (experimental model of variant angina); format: in vivo, Male SD strain rats; details: i.v.; for ST elevation, administn. of M (8 μg) after administn. of test compd. (at peak time): ± S.E.
# Procedure: (2) Preventive effect on methacholine-induced ST elevation (effect in experimental model of variant angina)
# The test was carried out according to the method of Sakai et al. [cf. J. Pharmacol. Methods, 5, 325-336 (1981)].
# Male SD strain rats, weighing about 500 g, were anesthetized with 60 mg/kg (i.p.) of sodium pentobarbital. Lead II electrocardiogram was recorded. The ST elevation was produced with 8.0 μg of metacholine given into the coronary […] through the cannula inserted from the right carotid artery. The test compound, dissolved in 5% ethanol-physiological saline solution, was administered intravenously. The amplitude of ST elevation was measured by means of the computer 0.5, 5 and 10 minutes after the administration of the test compound and afterward at intervals of 10-minute. The effect of the test compound was evaluated by comparing the amplitude of ST elevation after administration of the test compound with that before the administration. Each group of 5 rats was used for each dose of the test compound.
# The abbreviation M in the table represents metacholine.
structure (smiles),measurement,setting,value
"O=C(CCCN1CCN(c2ccc(F)cc2)CC1)NC1c2ccccc2CSc2ccccc21 (stereo not shown) [Example 1(3), 11-[4-[4-(4-fluorophenyl)-1-piperazinyl]butyrylamino]-6,11-dihydrodibenzo[b,e]thiepin]",Peak time (time of maximum hypotensive effect),[1]; p.o.,5 h
same,maximum hypotensive effect (decrease compared with the initial blood pressure),[1]; oral,12-14%
same,time of maximum hypotensive effect,[1]; oral,4 to 5 h
same,"Preventive effect on ST depression, 1 hour",[2]; 3 mg/kg p.o.,+
same,"Preventive effect on ST depression, 3 hours","[2]; 3 mg/kg p.o., 3 hours following administration",-
same,"Preventive effect on ST depression, 1 hour",[2]; 10 mg/kg p.o.,+
same,"Preventive effect on ST depression, 5 hours","[2]; 10 mg/kg p.o., 5 hours following administration",+
same,"Preventive effect on ST depression, 7 hours",[2]; 10 mg/kg p.o.,-
same,"Preventive effect on ST depression, 7 hours",[2]; 30 mg/kg p.o.,+
same,preventive effect on the ST depression (in words),"[2]; p.o., compared with diltiazem hydrochloride",more prolonged preventive effect on the ST depression than diltiazem hydrochloride
same,LD50 at 168 h,"in vivo; ip, single intraperitoneal administration",> 1000 mg/kg
same,LD50 at 168 h,in vivo; single oral administration,> 4000 mg/kg
same,peak time (preventive effect on ST elevation),[3]; 0.1 mg/kg,0.5 min
same,"ST elevation, administn. of M (8 μg) after administn. of test compd. (at peak time)","[3]; 0.1 mg/kg, * P < 0.05",+0.14 ± 0.02 ΔmV
same,peak time (preventive effect on ST elevation),[3]; 0.3 mg/kg,5 min
same,"ST elevation, administn. of M (8 μg) after administn. of test compd. (at peak time)","[3]; 0.3 mg/kg, * P < 0.05, ** P < 0.01",+0.09 ± 0.02 ΔmV
same,peak time (preventive effect on ST elevation),[3]; 1.0 mg/kg,0.5 min
same,"ST elevation, administn. of M (8 μg) after administn. of test compd. (at peak time)","[3]; 1.0 mg/kg, ** P < 0.01",+0.09 ± 0.01 ΔmV
same,preventive effect on the ST elevation (in words),[3]; compared with diltiazem hydrochloride,preventive effect on the ST elevation comparable to that of diltiazem hydrochloride
